In ChEMBL document CHEMBL5230140, “A retrospective overview of PHGDH and its inhibitors for regulating cancer metabolism” (Eur J Med Chem, 2021):

Tests used:
[1] = target: T1, D-3-phosphoglycerate dehydrogenase (Homo sapiens, UniProt O43175); assay: Inhibition of human PHGDH by fluorescence based analysis
T1 sequence (O43175 whole entry): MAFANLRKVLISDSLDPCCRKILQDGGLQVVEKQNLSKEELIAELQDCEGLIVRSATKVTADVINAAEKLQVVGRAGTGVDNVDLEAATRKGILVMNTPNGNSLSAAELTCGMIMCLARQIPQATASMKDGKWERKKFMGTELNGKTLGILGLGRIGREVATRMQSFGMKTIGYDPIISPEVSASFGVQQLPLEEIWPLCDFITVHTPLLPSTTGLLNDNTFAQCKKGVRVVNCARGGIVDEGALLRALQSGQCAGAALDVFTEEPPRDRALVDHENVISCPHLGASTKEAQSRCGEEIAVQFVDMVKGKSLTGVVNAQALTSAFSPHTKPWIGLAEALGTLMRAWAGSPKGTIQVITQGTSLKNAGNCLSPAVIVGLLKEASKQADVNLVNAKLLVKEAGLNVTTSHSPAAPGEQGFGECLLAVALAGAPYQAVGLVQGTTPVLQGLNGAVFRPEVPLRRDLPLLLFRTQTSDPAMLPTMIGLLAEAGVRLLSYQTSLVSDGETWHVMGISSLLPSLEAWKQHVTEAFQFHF

[2] = target: T1, D-3-phosphoglycerate dehydrogenase; assay: Binding affinity to human PHGDH (3 to 314 residues) expressed in Escherichia coli Rosetta (DE3) by isothermal titration calorimetry
[3] = target: T1, D-3-phosphoglycerate dehydrogenase; assay: Inhibition of human PHGDH using 3-PG as substrate incubated for 60 mins by fluorescence based analysis
[4] = target: T1, D-3-phosphoglycerate dehydrogenase; assay: Inhibition of human PHGDH expressed in Escherichia coli BL21 using 3-PG as substrate incubated for 30 mins by fluorescence based analysis
[5] = target: T1, D-3-phosphoglycerate dehydrogenase; assay: Binding affinity to PHGDH (unknown origin) by isothermal titration calorimetry
[6] = target: T1, D-3-phosphoglycerate dehydrogenase; assay: Inhibition of human PHGDH using 3-PG as substrate by fluorescence based analysis
[7] = target: T1, D-3-phosphoglycerate dehydrogenase; assay: Binding affinity to human PHGDH expressed in Escherichia coli BL21 incubated for 30 mins by MST assay

SMILES	IC50 [1] [µM]	other results
S=C(SSC(=S)N1CCCCC1)N1CCCCC1 [BIS(PIPERIDINYLTHIOCARBONYL)DISULFIDE]	0.51	–
S=C(SSC(=S)N1CCSCC1)N1CCSCC1	0.34	–
CN(C(=S)SSC(=S)N(C)C1CCCCC1)C1CCCCC1	1.01	–
S=C(SSC(=S)N1CCN(C2CCCCC2)CC1)N1CCN(C2CCCCC2)CC1	0.57	–
COc1ccc(NC(C)=O)cc1Cl	–	Kd [2]: 1300 µM
O=C(c1cc(-c2ccccc2)n[nH]1)N1CCc2cc(S(=O)(=O)Nc3ncccn3)ccc21	–	IC50 [3]: > 100 µM
CN(C(=S)SSC(=S)N(C)c1ccccc1)c1ccccc1	0.42	–
S=C(SSC(=S)N1CCc2ccccc2C1)N1CCc2ccccc2C1	0.38	–
S=C(SSC(=S)N1CCN(c2ccccc2)CC1)N1CCN(c2ccccc2)CC1	0.41	–
C[C@H]1C(=O)OC([C@@H](O)[C@](C)(O)C2[C@@H](O)CC3C4C[C@H]5O[C@]56[C@@H](O)C=CC(=O)[C@]6(C)C4CC[C@@]32C)[C@@H]1C (some centres not stated)	–	IC50 [4]: 1.66 µM
CCN(CC)C(=O)CSC(=S)N(CC)CC [(DIETHYLCARBAMOYL)METHYLENE DIETHYLCARBAMODITHIOATE]	> 1000	–
NC(=O)c1cc2ccccc2s1	–	Kd [5]: 470 µM
S=C(SSC(=S)N1CCN(Cc2ccccc2)CC1)N1CCN(Cc2ccccc2)CC1	22.5	–
CCN(CC)C(=S)CSC(=S)N(CC)CC [(DIETHYLTHIOCARBAMOYL)METHYLENE DIETHYLCARBAMODITHIOATE]	36.4	–
CCN(CC)C(=S)SCSC(=S)N(CC)CC	45.9	–
O=C(c1ccc(Cl)cc1)N1CCOCC1 [(4-CHLOROPHENYL)(MORPHOLINO)METHANONE]	–	IC50 [6]: 10.4 µM
S=C(SSC(=S)N1CCOCC1)N1CCOCC1	0.21	–
CC1CCN(C(=S)SSC(=S)N2CCC(C)CC2)CC1	0.58	–
CC1CCC(C)N1C(=S)SSC(=S)N1C(C)CCC1C (configuration not stated)	0.42	–
Cc1cc(C)nc(NS(=O)(=O)c2ccc(NC(=O)c3cc(-c4ccccc4O)n[nH]3)cc2)n1	–	IC50 [3]: < 50 µM
Cc1cncc(Cc2cccc(CO)c2)n1	–	Kd [2]: 16600 µM
CN1CCN(C(=S)SSC(=S)N2CCN(C)CC2)CC1	0.17	–
CN1CCN(C(=S)SCSC(=S)N2CCNCC2)CC1	67.3	–
S=C(Nc1ccccc1)SSC(=S)Nc1ccccc1	0.36	–
COC(=O)[C@H](C)N1Cc2c(O)c(O)c(O)c(C)c2C1=O	–	IC50 [4]: 9.76 µM; Kd [7]: 15.2 µM
S=C(SSC(=S)N(C1CCCCC1)C1CCCCC1)N(C1CCCCC1)C1CCCCC1	1.39	–
